Laboratory results reported in PMC7187627 (Antimicrobial Agents and Chemotherapy, 2019).
Entries after “also recorded” stand apart in the source; their conditions may differ.

What was measured:
[1] = system: type 1 methionyl-tRNA synthetase (MetRS); design: method as in PMID 19258353, PMID 19251726; details: cited from earlier work
[2] = system: Bacterial strains that express type 2 MetRS; design: method as in PMID 19240076; details: most Gram-negative bacteria, Bacteroides, bifidobacteria, actinobacteria, lactobacilli; cited from earlier work
gut microbiota = experiment: Fecal microbiome analysis by 16S rRNA gene sequencing; type: in vivo, human
Protocol: Fecal microbiota profiles were measured for each sample as each operational taxonomic unit (OTU) species present and the relative abundance of that species, based on a region of 469 bp encompassing the V3 and V4 hypervariable regions of the 16S rRNA gene, following protocols developed at the Department of Microbiology and Immunology, University of Maryland School of Medicine Institute for Genome Sciences, Baltimore, MD ([40][–][42]).
(i) Sample collection and storage and DNA extraction. Fecal samples were collected at nine time points during the study for fecal microbiome analysis: twice before the first dose, on days 1, 4, 7, 9, and 12, and approximately 24 h prior to follow-up visits on day 18 and day 29. The subject was allowed to collect and bring the first fecal sample when admitted (collected within 24 h of admission and kept refrigerated until collected by staff). DNA was extracted from 150 mg of archived stool samples stored at –80°C for 16S rRNA gene amplification and sequencing. Cell lysis was initiated by adding 50 μl of lyzosyme (10 mg/ml), 6 μl of mutanolysin (25,000 U/ml; Sigma-Aldrich), and 3 μl of lysostaphin (4,000 U/ml in sodium acetate; Sigma-Aldrich) and 41 μl of TE50 buffer (10 mM Tris-HCl, 50 mM EDTA [pH 8.0]). Following a 1-h incubation at 37°C, 10 μl of proteinase K (20 mg/ml), 100 μl of 10% SDS, and 20 μl of RNase A (20 mg/ml) were added to the mixture and incubated for 1 h at 55°C. Microbial cells were lysed by mechanical disruption using a bead beater (FastPrep instrument; Qbiogene) set at 6.0 m/s for 30 s. DNA was purified from the lysate using the QIAsymphony robotics platform, consistently providing between 5 and 20 μg of high-quality and amplifiable whole genomic DNA. Following DNA quantitation via the Quant-iTTM PicoGreen double-stranded DNA (dsDNA) assay kit (Life Technologies), samples were diluted to a 5-ng/μl concentration.
PCRs with dually barcoded 16S rRNA universal primers (319F/806R) were set up using a semiautomated platform with a ViaFlo 96 high-performance 96-channel pipettor and performed on Bio-Rad Tetrad 2 instruments with up to 576 dual index barcoding ([40]). […] The cycling parameters were 30 s of denaturation at 98°C, followed by 30 cycles of 15 s at 98°C (denaturing), 15 s at 58°C (annealing), and 15 s at 72°C (elongation), with a final extension at 72°C for 60 s. Controls included a no-template control for each barcode combination, extraction controls, and a DNA sample of known composition (positive control). The presence of amplicons was confirmed by gel electrophoresis on a 2% E-gel 96. PCR products were normalized using the SequalPrep normalization kit (Life Technologies, Carlsbad, CA) and pooled in equimolar amounts (25 ng) in a single tube. Amplification primers and reaction buffer were removed from the pooled amplicon mixtures using an AMPure kit (Agencourt). The purified amplicon mixtures (up to 576 per pool) were sequenced on an Illumina MiSeq instrument using the 300-bp paired-end protocol (MiSeq 300PE) at the Genomics Resource Center (GRC) at the Institute for Genome Sciences, University of Maryland School of Medicine.
(iii) Bioinformatic analysis. For sequence quality control, assembly, and taxonomic assignments, a custom bioinformatics pipeline ([40]) was applied that relies on QIIME software ([43]), UCHIME ([44]), and the RDP Naïve Bayesian classifier ([45]). Baseline for fecal microbiome assessments was defined as the mean of the predose assessments on day 1. Presence was defined as positive abundance. The presence of each OTU species and the shift in presence/absence occurrence from baseline were tabulated by treatment. Shifts were categorized as no change, appearance, and disappearance.
Additional 16S rRNA data analysis was performed at the Division of Biomedical Informatics and Personalized Medicine, University of Colorado. Joined and quality-filtered sequences sharing >97% sequence similarity were binned as OTUs. […]

## O=c1cc(NCCCN[C@@H]2CCOc3c(Br)cc(Br)cc32)[nH]c2ccsc12 [CRS3123]
[1]
  inhibition of type 1 MetRS: potently inhibits
[2]
  susceptibility of strains expressing type 2 MetRS: virtually no susceptibility
Gut microbiota; 200 mg, day 9, P = 0.006
  median weighted UniFrac distance to placebo arm (community composition): 0.361
Gut microbiota; 200 mg, pretreatment value 0.8%
  proteobacteria, maximum relative abundance: 1.6%
Gut microbiota; 400 mg, day 9, P = 0.027
  median weighted UniFrac distance to placebo arm (community composition): 0.440
Gut microbiota; 400 mg, day 29, P = 0.177
  median weighted UniFrac distance to placebo arm (community composition): 0.4480
Gut microbiota; 600 mg
  proteobacteria, relative abundance: < 10%
Gut microbiota; 600 mg, day 9, P = 0.013
  median weighted UniFrac distance to placebo arm (community composition): 0.663
Gut microbiota; 600 mg, day 29, P = 0.077
  median weighted UniFrac distance to placebo arm (community composition): 0.470
Gut microbiota; 200-mg and 400-mg doses
  increase in proteobacteria: did not see an increase
Gut microbiota; 200-mg dosing group, not different from placebo
  proportion of the major phyla in stool over time: minimal changes over time
Gut microbiota; 400-mg- and 600-mg-BID dosing groups, Bacteroidetes and Actinobacteria increased
  relative abundance of Firmicutes: decreased
Gut microbiota; after 9 days of twice-daily dosing, exception target genus Clostridium
  changes in highly abundant intestinal genera: no significant changes
Gut microbiota; any dose
  loss of phyla during treatment: no phyla were lost
  time until composition was back to baseline levels after stopping the treatment: ≤ 7 days
Gut microbiota; stool microbiome of healthy subjects
  effect on commensal anaerobes (Bacteroides, bifidobacteria, Clostridium clusters XIVa and IV): inactive; also recorded: did not impact
Gut microbiota; treatment phase, day 1 through day 10, versus placebo
  percentage of subjects with Clostridium species isolated at baseline but not at subsequent visits: greater in the CRS3123 treatment groups than in the placebo group
Gut microbiota; two lower doses (200, 400 mg), 10 days twice daily
  disruption of normal gut microbiota: minimal disruption
